Laboratory results: patent US20220160686A1, “MACROCYCLIC AZOLOPYRIDINE DERIVATIVES AS EED AND PRC2 MODULATORS” (Fulcrum Therapeutics, Inc., priority 2019, published 2022)
Read-outs that look alike come from different tables or passages of the source.

Legend:
[1] = biological target: EZH2/PRC2 complex (Homo sapiens, UniProt O75530); assay: Histone methyltransferase assay (radioisotope-based HotSpot); assay type: biochemical; settings: EZH2/PRC2 complex 10 nM, core histone substrate 0.05 mg/ml, 3H-SAM 1 μM; read-out: IC50, inhibitory effects on the HMT enzyme
Procedure: Effect of compounds of the present disclosure on EZH2/PRC2 complex methyltransferase functional activity was measured using the radioisotope-based HotSpot assay described by Horiuchi, K. Y., et al. Assay Drug Dev Technol. 11(4):227-36 (2013). Briefly, compounds were prepared in a 10-point 3-fold serial dilution in DMSO from a 10 mM stock in ECHO qualified plate using Assist Plus (Integra Biosciences) liquid handler. […] Nanoliter quantities of each compound's concentration series were transferred into the enzyme/substrate mix using (Echo 550, LabCyte Inc. Sunnyvale, Calif.) acoustic dispenser and pre-incubated for 20 min at room temperature. The methylation reaction was initiated by the addition of 1 μl of 5 μM S-Adenosyl-L-[methyl-^3H]methionine (^3H-SAM) and incubated at 30° C. for 1 h. The final concentration of the EZH2/PRC2 complex, core histone substrate and ^3H-SAM were 10 nM, 0.05 mg/ml, and 1 μM respectively. The % activity of test samples were calculated with reference to positive (no compound) and negative (no EZH2/PRC2) controls on the plate using Excel (Microsoft). The resulting values were exported to Prism (GraphPad software) to generate concentration response curves and IC50 values using the four-parameter logistic equation.

[2] = test system: human P-glycoprotein HEK cells (HEK-P-gp); assay: H3K27me3 immunocytochemistry assay in P-gp expressing HEK293T cells, with or without elacridar; assay type: cell-based; settings: Homo sapiens, 4 days compound treatment
Summary of the method: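 HEK293T stably expressing human ABCB1 (vinblastine-selected), 1000 cells/well, treated with serially diluted compound for 4 days at 37° C, with or without 250 nM elacridar. Fixed cells stained with anti-H3K27me3 plus Alexa 488 secondary and Hoechst; imaged at 10×, nuclei identified by Hoechst.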

[3] = biological target: T1, biotinylated AVI-tagged EED (76-441) (Homo sapiens, UniProt O75530); assay: EED binding SPR assay; settings: 1:1 binding model; read-out: KD, equilibrium dissociation constant as measured by surface plasmon resonance (SPR)
T1 construct: GST (N, cleaved yes); made in house; host or cells: E. coli BL21(DE3), co-expressed with pGro7
Procedure: Biotinylated AVI-tagged EED was produced using standard molecular biology techniques. A pGEX plasmid with a GST-preScission-cleavage-site-AVI-EED(76-441) sequence was placed into E. coli BL21(DE3) cells and co-expressed with pGro7. The E. coli were grown in shaker flasks in LB with ampicillin at 37° C. at 110 rpm to an OD600=0.7. At this time the temperature was lowered to 15° C. and IPTG was added to 0.3 mM. The cells were allowed to express overnight. Cells were then harvested.
For purification, the E. coli cell pellet was lysed into a buffer of 50 mM Tris pH 8.0, 500 mM NaCl, 5% glycerol and 5 mM DTT. The lysate was loaded onto a GSTrap FF column from GE Healthcare. After washing, the bound protein was eluted with 50 mM Tris pH 8.0, 500 mM NaCl, 5% glycerol, 5 mM DTT and 15 mM GSH. The collected fractions were combined and incubated with PreScission enzyme overnight at 4° C. The cleaved protein was then passed through a GSTrap FF column in a buffer of 50 mM Tris pH 8.0, 500 mM NaCl, 5% glycerol and 5 mM DTT. The cleaved protein was confirmed through mass spectrometry. The AVI-EED(76-441) was then buffer exchanged into 50 mM Bicine pH 8.3, 10 mM ATP, 10 mM magnesium acetate and 50 μM D-Biotin. 3 mg of BirA enzyme was added to the system and incubated at 4° C. for 2 hours to biotinylate the AVI-EED(76-441). The biotinylated-AVI-EED(76-441) was then buffer exchanged into 20 mM Tris pH 8.0 and 400 mM NaCl and passed through a size exclusion column of Superdex 200 16/60 Increase. The purified monomeric biotinylated-AVI-EED(76-441) was confirmed through SDS-PAGE, LC-MS and analytical size exclusion chromatography.
All surface plasmon resonance (SPR) assays were performed using a GE Biacore S200 utilizing GE Biotin CAPture chips. Capturing of CAP reagents was performed with a flow rate of 2 μL/min for 90 seconds. For protein capturing, a solution of 50 μg/mL of biotinylated AVI-tagged EED (76-441) in 10 mM HEPES pH 7.4, 150 mM NaCl, 0.05% Tween 20 and 2% DMSO (Running Buffer) was flowed over the chip with a flow rate of 5 μL/min for a contact time of 30 seconds. Final readings were 2200-2400 RU. For compounds, 7 concentrations were made with 3-dilutions using the Running Buffer for a total of 300 μL of each concentration in a 96-well microplate. During the binding experiments, a flow rate of […] was used for an association time of 90 seconds followed by a disassociation time of 180 seconds. The compartment temperature was set at 10° C. with the chip at 25° C. During regeneration the flow rate was set to 30 μL/min for 30 seconds. All fittings were done using a 1:1 binding model.

[4] = HEK293, 96 h, without elacridar, read-out: IC50, inhibitory activity on human P-glycoprotein HEK cells (HEK-P-gp)
[5] = HEK293, with 250 nM elacridar, read-out: IC50, inhibitory activity on human P-glycoprotein HEK cells (HEK-P-gp) pretreated with elacridar

T1 sequence (O75530 76-441 limits assumed): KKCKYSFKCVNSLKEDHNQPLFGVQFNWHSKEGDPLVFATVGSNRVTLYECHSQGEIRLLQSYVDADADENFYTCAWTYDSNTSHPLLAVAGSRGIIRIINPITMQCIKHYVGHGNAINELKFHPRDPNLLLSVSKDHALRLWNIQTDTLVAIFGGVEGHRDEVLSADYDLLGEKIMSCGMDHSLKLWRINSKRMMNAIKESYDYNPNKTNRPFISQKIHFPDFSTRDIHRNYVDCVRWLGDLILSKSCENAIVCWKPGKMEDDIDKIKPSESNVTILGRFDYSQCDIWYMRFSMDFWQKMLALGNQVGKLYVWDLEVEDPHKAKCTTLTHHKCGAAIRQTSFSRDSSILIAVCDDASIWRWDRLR
EZH2/PRC2 complex, sequence (O75530 whole entry): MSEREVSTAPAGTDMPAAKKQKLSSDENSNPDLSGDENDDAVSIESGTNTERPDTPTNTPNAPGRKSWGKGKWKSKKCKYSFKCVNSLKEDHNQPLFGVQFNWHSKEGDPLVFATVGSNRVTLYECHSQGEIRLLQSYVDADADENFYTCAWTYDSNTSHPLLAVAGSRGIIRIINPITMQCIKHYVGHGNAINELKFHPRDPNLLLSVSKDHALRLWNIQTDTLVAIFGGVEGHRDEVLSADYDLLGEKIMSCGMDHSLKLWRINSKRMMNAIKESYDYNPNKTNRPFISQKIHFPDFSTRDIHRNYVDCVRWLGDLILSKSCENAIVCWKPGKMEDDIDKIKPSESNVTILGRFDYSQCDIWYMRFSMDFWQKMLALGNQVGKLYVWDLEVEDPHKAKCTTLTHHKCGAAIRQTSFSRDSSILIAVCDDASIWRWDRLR
EZH2/PRC2 complex, sequence (Q15910 whole entry partner): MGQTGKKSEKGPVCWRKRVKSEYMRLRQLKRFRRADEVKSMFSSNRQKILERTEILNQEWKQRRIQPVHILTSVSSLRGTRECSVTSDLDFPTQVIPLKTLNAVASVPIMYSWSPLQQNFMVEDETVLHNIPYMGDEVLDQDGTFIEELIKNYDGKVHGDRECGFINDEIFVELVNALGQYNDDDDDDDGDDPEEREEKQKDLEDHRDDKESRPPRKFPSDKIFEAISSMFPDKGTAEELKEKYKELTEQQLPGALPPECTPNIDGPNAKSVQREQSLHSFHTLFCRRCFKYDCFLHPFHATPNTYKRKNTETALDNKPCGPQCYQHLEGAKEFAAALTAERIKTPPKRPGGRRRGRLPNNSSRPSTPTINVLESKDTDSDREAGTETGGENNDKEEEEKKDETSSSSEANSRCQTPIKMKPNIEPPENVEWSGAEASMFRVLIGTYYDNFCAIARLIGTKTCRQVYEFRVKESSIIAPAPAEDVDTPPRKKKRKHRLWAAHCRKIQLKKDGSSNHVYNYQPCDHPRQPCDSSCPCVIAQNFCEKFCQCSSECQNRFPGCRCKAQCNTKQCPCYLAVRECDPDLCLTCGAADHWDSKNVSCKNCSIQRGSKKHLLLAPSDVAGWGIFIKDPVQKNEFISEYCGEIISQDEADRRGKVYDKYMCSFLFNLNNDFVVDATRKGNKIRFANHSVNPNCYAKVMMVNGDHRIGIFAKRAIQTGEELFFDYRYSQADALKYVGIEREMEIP
EZH2/PRC2 complex, sequence (Q15022 whole entry partner): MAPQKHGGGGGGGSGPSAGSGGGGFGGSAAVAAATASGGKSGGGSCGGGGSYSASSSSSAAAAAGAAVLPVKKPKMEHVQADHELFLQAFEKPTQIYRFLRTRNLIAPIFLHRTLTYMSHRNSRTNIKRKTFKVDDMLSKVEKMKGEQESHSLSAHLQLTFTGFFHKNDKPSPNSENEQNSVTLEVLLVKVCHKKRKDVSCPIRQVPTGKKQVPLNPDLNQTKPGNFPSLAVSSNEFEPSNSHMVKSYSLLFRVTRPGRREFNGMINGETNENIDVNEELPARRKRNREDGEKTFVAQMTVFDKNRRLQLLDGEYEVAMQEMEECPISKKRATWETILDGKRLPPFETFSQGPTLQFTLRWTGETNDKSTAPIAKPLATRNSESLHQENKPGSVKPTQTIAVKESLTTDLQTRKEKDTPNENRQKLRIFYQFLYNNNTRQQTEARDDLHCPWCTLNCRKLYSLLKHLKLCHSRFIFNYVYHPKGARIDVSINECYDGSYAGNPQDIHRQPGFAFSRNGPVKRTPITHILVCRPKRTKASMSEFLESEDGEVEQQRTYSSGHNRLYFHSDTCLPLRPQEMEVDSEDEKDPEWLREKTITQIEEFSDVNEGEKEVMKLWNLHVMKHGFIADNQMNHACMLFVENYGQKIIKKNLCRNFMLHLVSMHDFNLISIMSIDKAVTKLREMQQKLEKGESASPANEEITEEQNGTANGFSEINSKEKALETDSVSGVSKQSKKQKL

Compound	IC50 [1] [nM]	Kd [3] [nM]	IC50 [2, 4] [nM]	IC50 [2, 5] [nM]
Cc1ncccc1-c1cc2c(n3cnnc13)NCc1c(F)ccc3c1[C@H](CO3)CO2 [Compound 185, (R)-12-fluoro-4-(2-methylpyridin-3-yl)-7a,8,13,14-tetrahydro-7H-[1,2,4]triazolo[4′,3′:1,6]pyrido[3,2-b]benzofuro[4,3-fg][1,4]oxazonine]	> 500		> 500	> 500
CC(=O)N1CCC(c2cc3c(n4cnnc24)NCc2c(F)cccc2COC3)CC1 [Compound 198, 1-(4-(12-fluoro-6,8,13,14-tetrahydro-[1,2,4]triazolo[4′,3′:1,6]pyrido[3,2-c]benzo[g][1,5]oxazonin-4-yl)piperidin-1-yl)ethan-1-one]	> 500			
COc1ncc(F)cc1-c1cc2c(n3cnnc13)NCc1c(F)ccc3c1[C@H](CO3)CO2 [Example 111]		2.5 to 5	100 to 500	100 to 500
Fc1ccc2c3c1CNc1c(cc(-c4ccc(C(F)(F)F)nc4)c4nncn14)OC[C@H]3CO2 [Example 112]		2.5 to 5	100 to 500	100 to 500
Fc1ccc2c3c1CNc1c(cc(-c4ccc(C(F)(F)F)cn4)c4nncn14)OCC3CO2 (stereo not shown) [Example 113]		10 to 50	> 500	> 500

Continued, in another order:

IC50 [1] [nM]	Kd [3] [nM]	Compound	IC50 [2, 4] [nM]	IC50 [2, 5] [nM]
	< 2.5	Fc1ccc2c3c1CNc1c(cc(-c4cnc(C(F)(F)F)nc4)c4nncn14)OC[C@H]3CO2 [Example 114]	100 to 500	100 to 500
	< 2.5	Fc1ccc2c3c1CNc1c(cc(-c4ccc(N5CCOCC5)nc4)c4nncn14)OC[C@H]3CO2 [Example 116]	> 500	100 to 500
	< 2.5	CN1CCN(c2ccc(-c3cc4c(n5cnnc35)NCc3c(F)ccc5c3[C@H](CO5)CO4)cn2)CC1 [Example 117]	100 to 500	50 to 100
	< 2.5	CN1CCN(c2ncc(-c3cc4c(n5cnnc35)NCc3c(F)ccc5c3[C@H](CO5)CO4)cn2)CC1 [Example 118]	100 to 500	50 to 100
	< 2.5	Cc1cc(-c2cc3c(n4cnnc24)NCc2c(F)ccc4c2[C@H](CO4)CO3)cnn1 [Example 123]	> 500	> 500
